Source: patent publication US8481503B2, “Combination cancer therapy with an AKT inhibitor and other anticancer agents” (Merck Sharp & Dohme Corp., priority 2009, dated 2013)

Tests used:
Type in all cases: cell-based, Human
[1] = test system: A2780 ovarian cancer cell line; assay: in vitro proliferation/viability, combination Compound A and standard of care agents (CellTiter-Glo, CalcuSyn CI); details: combination partner SOC with Compound A, simultaneous 72 h
Description: (§1) A 2- or 3-fold serial dilution series of concentrated Compound A/carboplatin combinations was prepared, in which the concentration ratio of the two drugs was fixed and equal to […] ratio of Compound A and carboplatin determined in single agent titrations described above. Corresponding single agent dilution series of concentrated Compound A and carboplatin were also prepared. The three dilution series were then tested in the proliferation/viability assay as described above. The data were analyzed using CalcuSyn software (BIOSOFT) that calculates combination index (CI) for each combination of Compound A/carboplatin as described below. Combination index values were generated by inserting the interpolated values into the mutually exclusive equation derived by Chou and Talalay.
(§2) Synergistic interaction between compounds was analyzed by the median effect method described by Chou and Talalay (Adv. Enzyme Regul. 22: 27-55, 1984). Studies were first conducted to determine the potency of Compound A or combination partner (Drug-A) as single agent in inhibiting proliferation/viability of tumor cells. The IC50 values of each single agent were determined by fitting data to four parameter dose-response equation. Percent inhibition of cell growth was calculated relative to vehicle treated control wells. […] Y starts at Bottom and goes to Top with a sigmoid shape.
(§3) The fixed ratio experimental design was then used to compare of various Compound A/Drug-A combinations and corresponding single agent treatments.
(§4) D1 and D2 are known from the composition of the combination and D1c and D2c can be calculated from the equation; Dc=Dm*[fa/(1−fa)]^1/m where Dm is the concentration of drugs giving 50% effect, fa is the fraction affected, and m is the slope from the median effect plot of log (fa/fu) where fu is the fraction unaffected versus log (D). A CI equal to 1 signifies an additive effect, less than 1 a synergistic effect, and greater than 1 an antagonistic effect.
Human ovarian cancer cell (A2780) was obtained from the European Collection of Cell Culture (ECACC). A2780 cells were cultured in RPMI-1640 containing heat-inactivated 10% fetal bovine serum (FBS) in a humidified incubator at 37° C. in 5% CO2.
(§5) The cells were seeded at 2,000 cells/well in RPMI 1640 supplemented with 10% heat-inactivated FBS in 96 well tissue culture plates (CORNING #3340) and incubated at 37° C. in 5% CO2 overnight. On the next day Compound A, doxorubicin or the combination of the two agents was added as a 2-fold dilution series in RPMI containing 1% DMSO. The final DMSO concentration in each assay was 0.1%. The plates were then incubated at 37° C. in 5% CO2 for 72 hours. The number of viable cells was measured using CellTiter-Glo cell viability assay (Promega #G7571). The luminiscence signal was read using a ARVO-SX multimode plate reader (Perkin-Elmer). Combination index was determined by the same method as described in section T1.3.
as §5, with “camptothecin” for “doxorubicin”
The cells were seeded at 2,000 cells/well in RPMI 1640 supplemented with 10% heat-inactivated FBS in 96 well tissue culture plates (CORNING #3340) and incubated at 37° C. in 5% CO2 overnight. On the next day Compound A, 5-FU or the combination of the two agents was added as a 2-fold dilution series in RPMI containing 1% DMSO.

Caspase-3/7 [2] = assay: Caspase-3/7 assay (Caspase-Glo 3/7) in A2780 cells, Compound A plus cytotoxic agents
Description: A2780 ovarian cancer cell line was cultured at 37° C. in complete medium (RPMI-1640 supplemented with 10% heat-inactivated FBS) and plated at 2,000 cells/well in 96 well assay plates (CORNING #3340). […] Then, Compound A and cytotoxic agents were added to each well and incubated at 37° C. in 5% CO2 for 24 hours. […] Medium was removed and 50 ul of Caspase-Glo reagents were added to wells. […] Relative Caspase-3/7 induction level was then calculated as the fold increase compared with the level of caspase-3/7 induction in the non-treatment group.

NCI-H460 NSCLC cell line = assay: in vitro proliferation/viability, combination Compound A and standard of care agents (CellTiter-Glo, CalcuSyn CI); details: combination partner SOC with Compound A, simultaneous 72 h
Description: as §1, §2, §3, §4
Human non-small cell lung cancer cell (NCI-H460) was obtained from the American Type Culture Collection (ATCC). NCI-H460 cells were cultured in RPMI-1640 containing heat-inactivated 10% fetal bovine serum (FBS) in a humidified incubator at 37° C. in 5% CO2.
as §5, with “NCI-H460 NSCLC cell line was” for “The cells were”
as §5, with “NCI-H460 NSCLC cell line was” for “The cells were”, “camptothecin” for “doxorubicin”
NCI-H460 NSCLC cell line was seeded at 2,000 cells/well in RPMI 1640 supplemented with 10% heat-inactivated FBS in 96 well tissue culture plates (CORNING #3340) and incubated at 37° C. in 5% CO2 overnight.

Caspase-3/7 [3] = assay: Caspase-3/7 assay (Caspase-Glo 3/7) in NCI-H460 cells, Compound A plus cytotoxic agents
[4] = combination partner SOC with Compound A 62.5 nM
[5] = combination partner SOC with Compound A 250 nM
[6] = combination partner SOC with Compound A 1000 nM

Row | SMILES | Combination index for above fractional inhibition, ED50 [1] | Combination index for above fractional inhibition, ED75 [1] | Combination index for above fractional inhibition, ED90 [1] | Caspase-3/7 fold induction at 24 h (fold of DMSO control) (Caspase-3/7 [2]; [4]) | Caspase-3/7 fold induction at 24 h (fold of DMSO control) (Caspase-3/7 [2]; [5]) | Caspase-3/7 fold induction at 24 h (fold of DMSO control) (Caspase-3/7 [2]; [6]) | Combination index for above fractional inhibition, ED50 (NCI-H460 NSCLC cell line) | Combination index for above fractional inhibition, ED75 (NCI-H460 NSCLC cell line) | Combination index for above fractional inhibition, ED90 (NCI-H460 NSCLC cell line) | Caspase-3/7 fold induction at 24 h (fold of DMSO control) (Caspase-3/7 [3]; [4]) | Caspase-3/7 fold induction at 24 h (fold of DMSO control) (Caspase-3/7 [3]; [5]) | Caspase-3/7 fold induction at 24 h (fold of DMSO control) (Caspase-3/7 [3]; [6])
1 | COc1cccc2c1C(=O)c1c(O)c3c(c(O)c1C2=O)C[C@@](O)(C(=O)CO)C[C@@H]3O[C@H]1C[C@H](N)[C@H](O)[C@H](C)O1 [Doxorubicin, (2S,4S)-4-(3-amino-2,3,6-trideoxy-α-L-lyxo-hexopyranosyloxy)-2,5,12-trihydroxy-2-hydroxyacetyl-7-methoxy-1,2,3,4-tetrahydrotetracene-6,11-dione] | 0.70 | 0.43 | 0.27 | 1.6 fold of DMSO control | 2.8 fold of DMSO control | 4.1 fold of DMSO control | 0.27 | 0.18 | 0.17 | 1.3 fold of DMSO control | 1.7 fold of DMSO control | 2.8 fold of DMSO control
2 | O=c1[nH]cc(F)c(=O)[nH]1 [Compound 5-FU, 5-fluorouracil] | 0.68 | 0.54 | 0.53 | 1.5 fold of DMSO control | 1.7 fold of DMSO control | 2.5 fold of DMSO control | 0.35 | 0.30 | 0.37 | 1.2 fold of DMSO control | 1.3 fold of DMSO control | 1.4 fold of DMSO control
3 | CC[C@@]1(O)C(=O)OCc2c1cc1n(c2=O)Cc2cc3ccccc3nc2-1 [Camptothecin, 4-ethyl-4-hydroxy-1H-pyrano[3′,4′:6,7]indolizino[1,2-b]quinoline-3,14-(4H,12H)-dione] | 0.56 | 0.40 | 0.29 | 1.9 fold of DMSO control | 2.6 fold of DMSO control | 4.0 fold of DMSO control | 0.39 | 0.39 | 0.63 | 1.2 fold of DMSO control | 1.4 fold of DMSO control | 1.7 fold of DMSO control
